Patent publication US12534444B2, “Treatment of cancer/inhibition of metastasis” (Celex Oncology Innovations Limited, priority 2010, dated 2026)

Tests used:
Type in all cases: cell-based, human
MDA-MB-231 cells [1] = experiment: Transverse migration assay (Transwell)
Description: This assay was used to represent the ability of cells to migrate as they intra/extravasate. […] The insert 602 has a migration filter membrane 605 in its base with 8 μm pores 606 extending therethrough.
Cells 607 were plated at a density of 2×10^4/ml on the filter membrane 605 and placed under a growth medium 608 containing 1% foetal bovine serum (FBS). A chemotactic gradient was created across the filter membrane 605 by placing growth medium 609 containing 10% FBS in the lower section 604 of the chamber.
Cells were allowed to migrate across the filter membrane 605 over a period of 24 hours, cells migrating and adhering to the underside of the filter membrane 605.
At the end of each assay, non-migrated cells were removed from the upper surface of the insert 602 with two different swabs
(§1) The number of cells migrating to the underside of the insert 602 was determined using crystal violet staining. Migrated cells were fixed for 15 minutes with ice-cold methanol. Then 0.5% crystal violet (in 25% methanol) was added for 15 minutes. The inserts were swabbed again and then washed in water and allowed to dry. Cells were then counted using twelve separate fields of view per insert (×200 magnification).
(§2) With the exception of single cell adhesion tests, which are discussed in the following paragraph, experiments were carried out under either; • (i) normal normoxic conditions ([…], 5% carbon dioxide), or • (ii) following 24 hours hypoxic pre-treatment (2% O2, 5% CO2, 93% N2) continued during the assays.

MDA-MB-231 cells [2] = experiment: Cell growth (proliferation) assay (MTT); conditions: Normoxia
Description: Cells were plated at 2×10^4 cells/ml in 24-well plates (Becton-Dickinson) and allowed to settle overnight. The cells were then treated for the required time of incubation (24 hours+), with medium changes every 24 hours. At the end of the treatment, the medium was removed, and this was followed by the colorimetric 3-[4,5-dimethylthiazol-2-yl]-2,5-diphenyltetrazolium bromide (MTT) assay (Grimes et al., 1995). Briefly, 0.1 ml MTT (5 mg/ml made up in the growth medium) and 0.4 ml growth medium was added in each well and the plate was incubated for 3-4 hours at 37° C. The medium was then removed from the chambers and replaced with 0.5 ml dimethyl sulfoxide (DMSO) and 0.063 ml glycine buffer (0.1 M glycine and 0.1 M NaCl; pH 10.5). Absorbance at 570 nm was determined 15 minutes after the addition of the glycine buffer. Results were calculated as means of nine repeats of each of the treatment vs. control spectrophotometer readings from individual invasion wells.
as §2

MDA-MB-231 cells [3] = experiment: Invasion assay (Matrigel Transwell); conditions: for INVASIVENESS (pretreatment): 72 hours pretreatment
Text: This assay is an extension of the transverse migration assay described above. To “invade”, the cells need both (i) to move as in the transverse migration assay and (ii) secrete a proteolytic enzyme to digest their surroundings. The ability of cells to invade neighbouring tissues by enzyme secretion was therefore assessed by using a layer of Matrigel™ (BD Biosciences) spread across the porous membrane of a Transwell® insert.
FIG. 7 is a schematic side sectional view of an invasion chamber 701 having a Transwell® insert 702 separating the chamber into upper 703 and lower 704 sections. The insert 702 has a migration filter membrane 705 in its base with 8 μm pores 706 extending therethrough. A layer 707 of Matrigel™ is shown coating the filter membrane 705.
Cells 708 were plated at a density of 2×10^4/ml onto the Matrigel™ layer 707 in 24-well plates (Becton-Dickinson) according to the manufacturers' instructions. 50 μl Matrigel™ was seeded at a 1:7 dilution (10 mg/ml stock) onto the inserts and left overnight. Prior to seeding with the cells the Matrigel™ was rehydrated using medium with no additions. This medium was removed prior to seeding the cells.
Cells were plated in a 1-5% FBS chemotactic gradient overnight (12 hours). The nutrient concentration in the medium 709 in the upper section 703 of the chamber was less than the concentration of nutrient in the medium 710 in the lower section 704 to induced movement of the cells through the Matrigel™ layer 707 and through the pores 706 to the underside of the filter membrane 705. At the end of each assay, non-invaded/non-migrated cells were removed from the upper surface of the insert 702 with two different swabs.
as §1, with “invading” for “migrating”, “702” for “602”, “Invaded” for “Migrated”, “magnification). If the difference in the average number of cells invading the two control inserts was more than 40%, the experiment was rejected.” for “magnification).”
as §2

MDA-MB-231 cells [4] = experiment: Cell viability assay (trypan blue); conditions: Normoxia, 48 hours
Description: Cells were seeded at a density of 5×10^4 cells/ml in 35 mm Falcon tissue culture dishes. After treatment with a given drug, the medium was removed and replaced with 800 μl of growth medium and 200 μl 0.4% trypan blue (Sigma, Dorset, UK) and incubated for 10 minutes in the incubator. The trypan blue was removed and the cells were washed once with 3 ml growth medium. For each treatment, cells from 30 random fields of view were counted under 100× magnification. The number of dead cells, stained blue, was counted in each field of view. The data were expressed as percentages of living cells out of the total number of cells in given fields of view. The percentages were averaged and differences between control and treatment were compared from at least three independent experiments.
as §2

[5] = Hypoxia, 5 μM, listed as RILUZOLE

With Nc1nc2ccc(OC(F)(F)F)cc2s1 [riluzole] the “TRANSVERSE MIGRATION” value (MDA-MB-231 cells [1]; Hypoxia, 1 μM) was “reduced the transverse migration in a statistically significant way”, the “TRANSVERSE MIGRATION” value (MDA-MB-231 cells [1]; Hypoxia, 1 μM, listed as RILUZOLE) was “decreased” and the “TRANSVERSE MIGRATION” value (MDA-MB-231 cells [1]; Hypoxia, 10 μM) was “reduced the transverse migration in a statistically significant way”. For the same compound, the “TRANSVERSE MIGRATION” value (MDA-MB-231 cells [1]; Hypoxia, 10 μM, listed as RILUZOLE) was “decreased”, the “TRANSVERSE MIGRATION” value (MDA-MB-231 cells [1]; Hypoxia, 100 μM) was “reduced the transverse migration in a statistically significant way” and the “TRANSVERSE MIGRATION” value (MDA-MB-231 cells [1]; Hypoxia, 100 μM, listed as RILUZOLE) was “decreased”. The “TRANSVERSE MIGRATION” value (MDA-MB-231 cells [1]; Normoxia, 1 μM) was “reduced the transverse migration of the cells in a statistically significant way”, the “TRANSVERSE MIGRATION” value (MDA-MB-231 cells [1]; Normoxia, 1 μM, listed as RILUZOLE) was “decreased” and the “TRANSVERSE MIGRATION” value (MDA-MB-231 cells [1]; Normoxia, 10 μM) was “no effect”. The “TRANSVERSE MIGRATION” value (MDA-MB-231 cells [1]; Normoxia, 100 μM) was “reduced the transverse migration of the cells in a statistically significant way”, the “TRANSVERSE MIGRATION” value (MDA-MB-231 cells [1]; Normoxia, 100 μM, listed as RILUZOLE) was “decreased” and the “PROLIFERATION (24 hours)” value (MDA-MB-231 cells [2]; 1 μM) was “no effect”. For the same compound, the “PROLIFERATION (24 hours)” value (MDA-MB-231 cells [2]; 10 μM) was “no effect”, the “PROLIFERATION (24 hours)” value (MDA-MB-231 cells [2]; 100 μM) was “reduced the proliferation of the cells in a statistically significant way” and the “PROLIFERATION (24 hours)” value (MDA-MB-231 cells [2]; 100 μM, listed as RILUZOLE) was “tail off”. The “growth (number of cells)” value (MDA-MB-231 cells [2]; 100 μM, 48 hours) was “reduced the proliferation of the cells in a statistically significant way”, the “INVASIVENESS (no pretreatment)” value (MDA-MB-231 cells [3]; Hypoxia, 1 μM) was “decreased” and the “INVASIVENESS (pretreatment)” value (MDA-MB-231 cells [3]; Hypoxia, 5 μM) was “significantly inhibited invasiveness”. The “INVASIVENESS (pretreatment)” value (MDA-MB-231 cells [3]; [5]) was “decreased”, the “INVASIVENESS (no pretreatment)” value (MDA-MB-231 cells [3]; [5]) was “decreased” and the “INVASIVENESS (no pretreatment)” value (MDA-MB-231 cells [3]; Hypoxia, 5 μM, listed as Riluzole) was “significantly inhibited invasiveness”. For the same compound, the “INVASIVENESS (no pretreatment)” value (MDA-MB-231 cells [3]; Normoxia, 1 μM) was “decreased”, the “CELL VIABILITY” value (MDA-MB-231 cells [4]; 1 μM) was “no effect” and the “CELL VIABILITY” value (MDA-MB-231 cells [4]; 10 μM) was “decreased the cell viability”. For the same compound, the “CELL VIABILITY” value (MDA-MB-231 cells [4]; 10 μM, listed as RILUZOLE) was “cell death”, the “CELL VIABILITY” value (MDA-MB-231 cells [4]; 100 μM) was “decreased the cell viability” and the “CELL VIABILITY” value (MDA-MB-231 cells [4]; 100 μM, listed as RILUZOLE) was “cell death”.
